Laboratory results as given in patent publication US20170190671A1, “BIS(ARYL)CATECHOL DERIVATIVES AS HERBICIDES” (E I DU PONT DE NEMOURS AND COMPANY, priority 2014, published 2017).

How the values were obtained:
[1] = tested on: ragweed (common ragweed, Ambrosia elatior); experiment: Test A postemergence; format: in vivo; details: Ambrosia artemisiifolia, post-emergence, 240 h, 0 to 100 scale, read-out: Plant response rating, Ragweed; for pest or weed control at 31 g/ha: 31 g ai/ha; for pest or weed control at 125 g/ha: 125 g ai/ha
Method in brief: (§1)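 Greenhouse pot test, loam/sand soil. Formulation: non-phytotoxic solvent mix plus surfactant. Pre: directed spray onto soil after sowing. Post: plants at 1–2 leaf, 2–10 cm. Rated visually vs untreated controls at ~10 d, 0 (no effect) to 100 (complete control).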

[2] = tested on: wheat (Triticum aestivum); experiment: Test A postemergence; format: in vivo; details: Triticum aestivum, post-emergence, 240 h, 0 to 100 scale, read-out: Plant response rating, Wheat; for plant injury at 31 g/ha: 31 g ai/ha; for plant injury at 125 g/ha: 125 g ai/ha
Method in brief: as §1

[3] = tested on: pigweed (Amaranthus retroflexus); experiment: Test A postemergence; format: in vivo; details: Amaranthus retroflexus, post-emergence, 240 h, 0 to 100 scale, read-out: Plant response rating, Pigweed; for pest or weed control at 31 g/ha: 31 g ai/ha; for pest or weed control at 125 g/ha: 125 g ai/ha
Method in brief: as §1

[4] = tested on: barnyardgrass (Echinochloa crus-galli); experiment: Test A postemergence; format: in vivo; details: Echinochloa crus-galli, post-emergence, 240 h, 0 to 100 scale, read-out: Plant response rating, Barnyardgrass; for pest or weed control at 31 g/ha: 31 g ai/ha; for pest or weed control at 125 g/ha: 125 g ai/ha
Method in brief: as §1

[5] = tested on: Italian ryegrass (Lolium multiflorum); experiment: Test A postemergence; format: in vivo; details: Lolium multiflorum, post-emergence, 240 h, 0 to 100 scale, read-out: Plant response rating, Ryegrass, Italian; for pest or weed control at 31 g/ha: 31 g ai/ha; for pest or weed control at 125 g/ha: 125 g ai/ha
Method in brief: as §1

corn (Zea mays) = experiment: Test A postemergence; format: in vivo; details: Zea mays, post-emergence, 240 h, 0 to 100 scale; for Corn plant response rating (crop injury, 0 = no effect, 100 = complete kill) at 31 g/ha: 31 g ai/ha; for Corn plant response rating (crop injury, 0 = no effect, 100 = complete kill) at 125 g/ha: 125 g ai/ha
Method in brief: as §1

[6] = tested on: blackgrass (Alopecurus myosuroides); experiment: Test A postemergence; format: in vivo; details: Alopecurus myosuroides, post-emergence, 240 h, 0 to 100 scale, read-out: Plant response rating, Blackgrass; for pest or weed control at 31 g/ha: 31 g ai/ha; for pest or weed control at 125 g/ha: 125 g ai/ha
Method in brief: as §1

[7] = tested on: galium (catchweed bedstraw, Galium aparine); experiment: Test A postemergence; format: in vivo; details: Galium, post-emergence, 240 h, 0 to 100 scale, read-out: Plant response rating, Galium; for pest or weed control at 31 g/ha: 31 g ai/ha; for pest or weed control at 125 g/ha: 125 g ai/ha
Method in brief: as §1

[8] = tested on: giant foxtail (Setaria faberii); experiment: Test A postemergence; format: in vivo; details: Setaria faberi, post-emergence, 240 h, 0 to 100 scale, read-out: Plant response rating, Foxtail, Giant; for pest or weed control at 31 g/ha: 31 g ai/ha; for pest or weed control at 125 g/ha: 125 g ai/ha
Method in brief: as §1

kochia (Kochia scoparia) [9] = experiment: Test A postemergence; format: in vivo; details: Bassia scoparia, post-emergence, 240 h, 0 to 100 scale, read-out: Plant response rating, Kochia; for pest or weed control at 31 g/ha: 31 g ai/ha; for pest or weed control at 125 g/ha: 125 g ai/ha
Method in brief: as §1

[10] = tested on: ducksalad (Heteranthera limosa); experiment: Test B flooded paddy; format: in vivo; details: Heteranthera limosa, 336 h; 250 g ai/ha, Flood, 13 to 15 days, scale 0 (no effect) to 100 (complete control); read-out: Plant response rating, Ducksalad
Method in brief: (§2)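 In-water treatment: compound dosed into 3 cm flood over soil, water level unchanged throughout. Controls run alongside; visual assessment at day 13–15.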

[11] = tested on: barnyardgrass (Echinochloa crus-galli); experiment: Test B flooded paddy; format: in vivo; details: Echinochloa crus-galli, 336 h; 250 g ai/ha, Flood, 13 to 15 days, scale 0 (no effect) to 100 (complete control); read-out: Plant response rating, Barnyardgrass
Method in brief: as §2

rice (Oryza sativa) = experiment: Test B flooded paddy; format: in vivo; details: Oryza sativa, 336 h; 250 g ai/ha, Flood, 13 to 15 days, scale 0 (no effect) to 100 (complete control); read-out: Plant response rating, Rice
Method in brief: as §2

[12] = tested on: sedge, umbrella (small-flower umbrella sedge, Cyperus difformis); experiment: Test B flooded paddy; format: in vivo; details: Cyperus difformis, 336 h; 250 g ai/ha, Flood, 13 to 15 days, scale 0 (no effect) to 100 (complete control); read-out: Plant response rating, Sedge, Umbrella
Method in brief: as §2

[13] = tested on: ragweed (common ragweed, Ambrosia elatior); experiment: Test A preemergence; format: in vivo; details: Ambrosia artemisiifolia, pre-emergence, 240 h; for pest or weed control at 31 g/ha: 31 g ai/ha; for pest or weed control at 125 g/ha: 125 g ai/ha
Method in brief: as §1

[14] = tested on: pigweed (Amaranthus retroflexus); experiment: Test A preemergence; format: in vivo; details: Amaranthus retroflexus, pre-emergence, 240 h; for pest or weed control at 31 g/ha: 31 g ai/ha; for pest or weed control at 125 g/ha: 125 g ai/ha
Method in brief: as §1

[15] = tested on: barnyardgrass (Echinochloa crus-galli); experiment: Test A preemergence; format: in vivo; details: Echinochloa crus-galli, pre-emergence, 240 h; for pest or weed control at 31 g/ha: 31 g ai/ha, 0 to 100 scale (0 no effect, 100 complete control), read-out: Barnyardgrass plant response rating; for pest or weed control at 125 g/ha: 125 g ai/ha, 0 to 100 scale, read-out: Plant response rating, Barnyardgrass
Method in brief: as §1

[16] = tested on: Italian ryegrass (Lolium multiflorum); experiment: Test A preemergence; format: in vivo; details: Lolium multiflorum, pre-emergence, 240 h; for pest or weed control at 31 g/ha: 31 g ai/ha; for pest or weed control at 125 g/ha: 125 g ai/ha
Method in brief: as §1

[17] = tested on: giant foxtail (Setaria faberii); experiment: Test A preemergence; format: in vivo; details: Setaria faberi, pre-emergence, 240 h; for pest or weed control at 31 g/ha: 31 g ai/ha; for pest or weed control at 125 g/ha: 125 g ai/ha
Method in brief: as §1

kochia (Kochia scoparia) [18] = experiment: Test A preemergence; format: in vivo; details: Bassia scoparia, pre-emergence, 240 h; for pest or weed control at 31 g/ha: 31 g ai/ha; for pest or weed control at 125 g/ha: 125 g ai/ha
Method in brief: as §1

[19] = 0 to 100 scale (0 no effect, 100 complete control), read-out: Ragweed plant response rating
[20] = 0 to 100 scale (0 no effect, 100 complete control), read-out: Pigweed plant response rating
[21] = 0 to 100 scale (0 no effect, 100 complete control), read-out: Ryegrass, Italian plant response rating
[22] = 0 to 100 scale (0 no effect, 100 complete control), read-out: Foxtail, Giant plant response rating
[23] = 0 to 100 scale (0 no effect, 100 complete control), read-out: Kochia plant response rating

SMILES | pest or weed control at 31 g/ha [1] | pest or weed control at 125 g/ha [1] | plant injury at 31 g/ha [2] | plant injury at 125 g/ha [2] | pest or weed control at 31 g/ha [3] | pest or weed control at 125 g/ha [3] | pest or weed control at 31 g/ha [4] | pest or weed control at 125 g/ha [4] | pest or weed control at 31 g/ha [5] | pest or weed control at 125 g/ha [5] | Corn plant response rating (crop injury, 0 = no effect, 100 = complete kill) at 31 g/ha (corn (Zea mays)) | Corn plant response rating (crop injury, 0 = no effect, 100 = complete kill) at 125 g/ha (corn (Zea mays)) | pest or weed control at 31 g/ha [6] | pest or weed control at 125 g/ha [6] | pest or weed control at 31 g/ha [7] | pest or weed control at 125 g/ha [7] | pest or weed control at 31 g/ha [8] | pest or weed control at 125 g/ha [8] | pest or weed control at 31 g/ha (kochia (Kochia scoparia) [9]) | pest or weed control at 125 g/ha (kochia (Kochia scoparia) [9]) | also measured
FC(F)c1cnc(Oc2c(Br)cccc2Oc2ncc(Cl)cn2)s1 [Compound 10, 2-[3-bromo-2-[[5-(difluoromethyl)-2-thiazolyl]oxy]phenoxy]-5-chloropyrimidine] | 0% | 30% | 0% | 0% | 90% | 100% | 0% | 20% | 0% | 60% | 0% | 10% | 10% | 70% | 50% | 100% | 0% | 20% | 20% | 80% | pest or weed control at 250 g/ha [10]: 0%; pest or weed control at 250 g/ha [11]: 0%; plant injury at 250 g/ha (rice (Oryza sativa)): 0%; pest or weed control at 250 g/ha [12]: 0%; melting point: 113 to 116 °C; pest or weed control at 31 g/ha [13, 19]: 0%; pest or weed control at 125 g/ha ([13]; 0 to 100 scale, read-out: Plant response rating, Ragweed): 0%; pest or weed control at 31 g/ha [14, 20]: 90%; pest or weed control at 125 g/ha ([14]; 0 to 100 scale, read-out: Plant response rating, Pigweed): 100%; pest or weed control at 31 g/ha [15]: 0%; pest or weed control at 125 g/ha [15]: 30%; pest or weed control at 31 g/ha [16, 21]: 0%; pest or weed control at 125 g/ha ([16]; 0 to 100 scale, read-out: Plant response rating, Ryegrass, Italian): 40%; pest or weed control at 31 g/ha [17, 22]: 40%; pest or weed control at 125 g/ha ([17]; 0 to 100 scale, read-out: Plant response rating, Foxtail, Giant): 90%; pest or weed control at 31 g/ha (kochia (Kochia scoparia) [18]; [23]): 0%; pest or weed control at 125 g/ha (kochia (Kochia scoparia) [18]; 0 to 100 scale, read-out: Plant response rating, Kochia): 50%
Fc1ccc(F)c(Oc2ncc(Br)cn2)c1Oc1ncc(Br)cn1 [Compound 31] | 0% | 0% | 20% | 30% | 90% | 90% | 10% | 20% | 10% | 30% | 20% | 30% | 20% | 30% | 70% | 100% | 20% | 40% | 20% | 80% | pest or weed control at 250 g/ha [10]: 50%; pest or weed control at 250 g/ha [11]: 0%; plant injury at 250 g/ha (rice (Oryza sativa)): 0%; pest or weed control at 250 g/ha [12]: 50%; melting point: 166 to 170 °C; pest or weed control at 31 g/ha [13, 19]: 0%; pest or weed control at 125 g/ha [13, 19]: 20%; pest or weed control at 31 g/ha [14, 20]: 70%; pest or weed control at 125 g/ha [14, 20]: 100%; pest or weed control at 31 g/ha [15]: 0%; pest or weed control at 125 g/ha [15]: 70%; pest or weed control at 31 g/ha [16, 21]: 0%; pest or weed control at 125 g/ha [16, 21]: 0%; pest or weed control at 31 g/ha [17, 22]: 40%; pest or weed control at 125 g/ha [17, 22]: 90%; pest or weed control at 31 g/ha (kochia (Kochia scoparia) [18]; [23]): 30%; pest or weed control at 125 g/ha (kochia (Kochia scoparia) [18]; [23]): 90%
